From ChEMBL document CHEMBL5046242, “Investigation of Janus Kinase (JAK) Inhibitors for Lung Delivery and the Importance of Aldehyde Oxidase Metabolism” (J Med Chem, 2022)
In brackets after ≈: the same amount, converted by molar mass.

Tests used:
[1] = target: Tyrosine-protein kinase JAK1 (Homo sapiens, UniProt P23458); type: cell-based
physchem [2] = settings: buffer, pH 7.4
[3] = target: Non-receptor tyrosine-protein kinase TYK2 (Homo sapiens, UniProt P29597); type: cell-based
Aurora kinase B = Aurora kinase B (Homo sapiens, UniProt Q96GD4)
Aurora kinase B, sequence (Q96GD4 whole entry): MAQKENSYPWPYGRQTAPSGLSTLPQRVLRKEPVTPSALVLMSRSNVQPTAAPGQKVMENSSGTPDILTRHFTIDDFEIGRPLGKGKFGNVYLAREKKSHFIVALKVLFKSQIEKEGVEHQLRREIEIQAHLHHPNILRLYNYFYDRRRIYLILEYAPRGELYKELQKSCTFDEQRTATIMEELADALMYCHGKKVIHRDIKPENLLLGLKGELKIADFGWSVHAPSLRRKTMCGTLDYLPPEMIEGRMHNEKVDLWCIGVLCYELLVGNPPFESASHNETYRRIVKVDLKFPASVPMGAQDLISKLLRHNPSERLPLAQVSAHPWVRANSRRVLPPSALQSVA

in vitro = settings: PAMPA, pH 7.4
Description: Permeability of the compound at pH 7.4 incubated for 3 hrs by HPLC based artificial membrane permeability assay

physchem [4] = settings: buffer, pH 6.5
Description: Solubility of the compound in stimulated lung fluid at pH 6.5 measured after 4 hrs by HPLC-UV analysis

Tyrosine-protein kinase JAK1, sequence (P23458 whole entry): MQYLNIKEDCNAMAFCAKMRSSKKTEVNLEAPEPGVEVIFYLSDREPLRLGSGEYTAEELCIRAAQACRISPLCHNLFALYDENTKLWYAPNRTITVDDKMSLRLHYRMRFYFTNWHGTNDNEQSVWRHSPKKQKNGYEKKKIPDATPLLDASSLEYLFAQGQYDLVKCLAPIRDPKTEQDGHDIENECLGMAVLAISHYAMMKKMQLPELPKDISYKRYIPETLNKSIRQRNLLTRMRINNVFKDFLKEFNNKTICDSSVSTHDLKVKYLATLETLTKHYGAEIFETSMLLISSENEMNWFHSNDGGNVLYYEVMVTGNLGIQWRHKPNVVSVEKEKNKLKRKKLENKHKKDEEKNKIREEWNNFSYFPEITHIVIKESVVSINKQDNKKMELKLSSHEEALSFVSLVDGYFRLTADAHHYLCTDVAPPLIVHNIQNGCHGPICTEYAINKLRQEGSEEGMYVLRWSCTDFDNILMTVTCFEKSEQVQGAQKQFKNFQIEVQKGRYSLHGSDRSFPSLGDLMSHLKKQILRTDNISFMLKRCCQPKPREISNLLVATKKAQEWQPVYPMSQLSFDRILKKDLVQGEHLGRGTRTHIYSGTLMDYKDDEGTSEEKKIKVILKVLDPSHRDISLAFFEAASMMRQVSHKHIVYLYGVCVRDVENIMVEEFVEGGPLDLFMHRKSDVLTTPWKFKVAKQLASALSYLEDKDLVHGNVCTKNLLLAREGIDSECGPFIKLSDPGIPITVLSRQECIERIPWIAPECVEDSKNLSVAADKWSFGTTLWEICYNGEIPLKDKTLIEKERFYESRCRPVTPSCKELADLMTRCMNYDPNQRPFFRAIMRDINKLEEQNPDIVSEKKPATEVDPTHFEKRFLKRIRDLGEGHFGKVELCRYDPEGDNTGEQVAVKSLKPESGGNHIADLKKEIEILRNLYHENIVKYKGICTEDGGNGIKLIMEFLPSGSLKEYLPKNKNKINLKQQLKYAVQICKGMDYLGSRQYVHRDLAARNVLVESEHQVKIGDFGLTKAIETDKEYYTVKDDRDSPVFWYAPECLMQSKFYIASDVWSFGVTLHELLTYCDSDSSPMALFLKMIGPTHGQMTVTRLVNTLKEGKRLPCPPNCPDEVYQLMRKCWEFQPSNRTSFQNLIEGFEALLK
Non-receptor tyrosine-protein kinase TYK2, sequence (P29597 whole entry): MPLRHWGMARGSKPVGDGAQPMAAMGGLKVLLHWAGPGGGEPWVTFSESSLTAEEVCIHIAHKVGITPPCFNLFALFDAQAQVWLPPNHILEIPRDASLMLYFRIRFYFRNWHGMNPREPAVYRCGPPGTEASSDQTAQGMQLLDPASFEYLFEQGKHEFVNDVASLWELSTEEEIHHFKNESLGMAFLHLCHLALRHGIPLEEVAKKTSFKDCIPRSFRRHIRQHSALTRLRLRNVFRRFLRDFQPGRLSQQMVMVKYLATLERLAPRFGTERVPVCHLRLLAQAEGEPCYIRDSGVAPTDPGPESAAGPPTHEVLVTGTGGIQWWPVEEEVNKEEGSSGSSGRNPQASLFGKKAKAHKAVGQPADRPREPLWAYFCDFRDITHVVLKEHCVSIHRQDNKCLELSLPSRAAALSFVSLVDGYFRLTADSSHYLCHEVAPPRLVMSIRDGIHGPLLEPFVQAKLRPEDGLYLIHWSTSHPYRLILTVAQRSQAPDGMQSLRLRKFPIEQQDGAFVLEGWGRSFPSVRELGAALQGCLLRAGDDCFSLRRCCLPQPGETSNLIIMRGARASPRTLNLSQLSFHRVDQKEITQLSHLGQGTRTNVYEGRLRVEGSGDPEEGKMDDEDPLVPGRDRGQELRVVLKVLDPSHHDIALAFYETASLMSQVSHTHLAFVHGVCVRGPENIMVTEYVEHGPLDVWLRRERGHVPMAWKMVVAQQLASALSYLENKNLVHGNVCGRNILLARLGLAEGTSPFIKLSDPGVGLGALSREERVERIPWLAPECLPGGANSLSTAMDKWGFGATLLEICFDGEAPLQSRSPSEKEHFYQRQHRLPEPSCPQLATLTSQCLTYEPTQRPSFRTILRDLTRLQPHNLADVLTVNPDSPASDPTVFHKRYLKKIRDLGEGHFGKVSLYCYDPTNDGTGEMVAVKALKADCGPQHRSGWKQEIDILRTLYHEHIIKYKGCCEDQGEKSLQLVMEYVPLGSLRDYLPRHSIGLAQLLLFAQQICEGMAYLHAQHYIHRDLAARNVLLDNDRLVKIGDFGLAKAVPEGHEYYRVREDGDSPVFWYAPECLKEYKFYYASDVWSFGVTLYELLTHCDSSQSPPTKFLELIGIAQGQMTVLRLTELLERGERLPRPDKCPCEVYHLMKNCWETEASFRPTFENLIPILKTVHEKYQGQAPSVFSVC

Q: With `Cn1cc(Nc2ncc3cccc(OC4CCNCC4)c3n2)cn1` as the compound, how does the IC50 [1] read?
A: The IC50 was 79.4 nM.

Q: What about the solubility kinetic at 1 h (physchem [2]) of the same compound?
A: Its solubility kinetic at 1 h is 523 µM (≈ 170 µg/mL).

Q: For `COc1cccc2cnc(Nc3cnn(C)c3)nc12`, which IC50 [1] is on record?
A: Its IC50 is 631 nM.

Q: And the IC50 [3]?
A: The IC50 was 631 nM.

Q: What about the solubility kinetic at 1 h (physchem [2]) of the same compound?
A: Its solubility kinetic at 1 h is 539 µM (≈ 138 µg/mL).

Q: With `CC(=O)N1CCC(Oc2cccc3cnc(Nc4cnn(C)c4)nc23)CC1` as the compound, how does the IC50 [1] read?
A: Its IC50 is 251 nM.

Q: What about the IC50 [3] of the same compound?
A: The IC50 was 316 nM.

Q: What about the solubility kinetic at 1 h (physchem [2]) of the same compound?
A: Its solubility kinetic at 1 h is 557 µM (≈ 204 µg/mL).

Q: With `CCc1cc(O)c(F)cc1-c1cc(NCCNC)c2nc(N)ncc2c1` as the compound, how does the IC50 (Aurora kinase B) read?
A: Its IC50 is 12600 nM.

Q: What about the Papp at 3 h (in vitro) of the same compound?
A: Its Papp at 3 h is 1.2 ×10⁻⁶ cm/s.

Q: With `CCc1cc(O)c(F)cc1-c1cc(NCCO)c2nc(N)ncc2c1` as the compound, how does the solubility at 4 h (physchem [4]) read?
A: Its solubility at 4 h is 44 µg/mL (≈ 129 µM).

Q: What about the Papp at 3 h (in vitro) of the same compound?
A: Its Papp at 3 h is 12 ×10⁻⁶ cm/s.

Q: Which IC50 [1] does the source give for `CC(=O)N1CCC(Nc2cccc3cnc(Nc4cnn(C)c4)nc23)CC1` here?
A: Its IC50 is 126 nM.

Q: And the solubility kinetic at 1 h (physchem [2])?
A: The solubility kinetic at 1 h was 404 µM (≈ 148 µg/mL).

Q: What does the source list for `COc1cc(-c2ccc(O)cc2)cc2cnc(Nc3cnn(C)c3)nc12`?
A: IC50 [1]: 0.501 nM; solubility kinetic at 1 h (physchem [2]): 11 µM (≈ 3.82 µg/mL)
